In brackets after ≈: the same amount, converted by molar mass. Blank lines part the entries; values can stand above or below the compound they belong to.
Assays:
Experiment in all cases: In vitro antibacterial evaluation: minimum inhibitory concentration (MIC), broth dilution method
Assay type in all cases: cell-based
[1] = system: Enterococcus sp.; details: 18 hours at 35° C.
How it was run: (§1)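 First, organisms are seeded at 5×10^5 CFU/mL into Muller-Hinton II […]. Next, antibiotic is applied across 64-0.06 μg/mL by broth dilution (NCCLS M7-A2). Finally, the lowest inhibitory concentration is recorded as MIC.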

[2] = system: Escherichia coli; details: 18 hours at 35° C.
How it was run: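 NCCLS M7-A2 broth dilution; Muller-Hinton II […]; 5×10^5 CFU/mL; 64-0.06 μg/mL. MIC = lowest concentration with no growth.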

[3] = system: Staphylococcus sp.; details: for MIC Staphylococcus aureus (ATCC 29213): strain ATCC 29213; for MIC Staphylococcus aureus (GC 1131): strain GC 1131; for MIC Staphylococcus aureus (GC 3051): strain GC 3051; for MIC Staphylococcus aureus (GC 3053): strain GC 3053; for MIC Staphylococcus aureus (GC 4541): strain GC 4541; for MIC Staphylococcus aureus (GC 4542): strain GC 4542; for MIC Staphylococcus aureus-SMITH (GC 4543): strain GC 4543; for MIC Staphylococcus aureus (GC 4544): strain GC 4544; for MIC Staphylococcus aureus (GC 4545): strain GC 4545; for MIC Staphylococcus haemolyticus (GC 4546): strain GC 4546; for MIC Coagulase Negative Staphylococcus (GC 4547): strain GC 4547; for MIC Coagulase Negative Staphylococcus (GC 4548): strain GC 4548; for MIC Coagulase Negative Staphylococcus (GC 4549): strain GC 4549; for MIC Coagulase Negative Staphylococcus (GC 4551): strain GC 4551
How it was run: as §1

[4] = system: Streptococcus sp.; details: 18 hours at 35° C.
How it was run: as §1

[5] = Enterococcus faecalis (ATCC 29212)
[6] = Enterococcus faecalis (GC 2242)
[7] = Enterococcus faecalis (GC 2691)
[8] = Enterococcus faecalis (GC 3059)
[9] = Enterococcus faecalis (GC 4552)
[10] = Enterococcus faecalis (GC 4553)
[11] = Enterococcus faecalis (GC 4554)
[12] = Enterococcus faecalis (GC 6189)
[13] = broth dilution, inoculum 5×10^5 CFU/mL
[14] = Streptococcus agalactiae (GC 4564)
[15] = Streptococcus pneumoniae (ATCC 6301)
[16] = Streptococcus pneumoniae (GC 1894)
[17] = Streptococcus pneumoniae (GC 4565)
[18] = Streptococcus pyogenes (GC 4563)

MIC Enterococcus avium (GC 4558) ([1]; Enterococcus avium (GC 4558)): 4 µg/mL (≈ 2.83 µM)
MIC Enterococcus faecalis (ATCC 29212) [1, 5]: 4 µg/mL (≈ 2.83 µM)
MIC Enterococcus faecalis (GC 2242) [1, 6]: 4 µg/mL (≈ 2.83 µM)
MIC Enterococcus faecalis (GC 2691) [1, 7]: 4 µg/mL (≈ 2.83 µM)
MIC Enterococcus faecalis (GC 3059) [1, 8]: 4 µg/mL (≈ 2.83 µM)
MIC Enterococcus faecalis (GC 4552) [1, 9]: 4 µg/mL (≈ 2.83 µM)
MIC Enterococcus faecalis (GC 4553) [1, 10]: 4 µg/mL (≈ 2.83 µM)
MIC Enterococcus faecalis (GC 4554) [1, 11]: 4 µg/mL (≈ 2.83 µM)
MIC Enterococcus faecalis (GC 6189) [1, 12]: 4 µg/mL (≈ 2.83 µM)
MIC Enterococcus faecium (GC 2243) ([1]; Enterococcus faecium (GC 2243)): 4 µg/mL (≈ 2.83 µM)
MIC Enterococcus faecium (GC 4556) ([1]; Enterococcus faecium (GC 4556)): 4 µg/mL (≈ 2.83 µM)
MIC Enterococcus faecium (GC 4557) ([1]; Enterococcus faecium (GC 4557)): 4 µg/mL (≈ 2.83 µM)
MIC Enterococcus avium (GC 4558) [1, 13]: 4 µg/mL (≈ 2.83 µM)
MIC Enterococcus faecalis (ATCC 29212) [1, 13]: 4 µg/mL (≈ 2.83 µM)
MIC Enterococcus faecalis (GC 2242) [1, 13]: 4 µg/mL (≈ 2.83 µM)
MIC Enterococcus faecalis (GC 2691) [1, 13]: 4 µg/mL (≈ 2.83 µM)
MIC Enterococcus faecalis (GC 3059) [1, 13]: 4 µg/mL (≈ 2.83 µM)
MIC Enterococcus faecalis (GC 4552) [1, 13]: 4 µg/mL (≈ 2.83 µM)
MIC Enterococcus faecalis (GC 4553) [1, 13]: 4 µg/mL (≈ 2.83 µM)
MIC Enterococcus faecalis (GC 4554) [1, 13]: 4 µg/mL (≈ 2.83 µM)
MIC Enterococcus faecalis (GC 6189) [1, 13]: 4 µg/mL (≈ 2.83 µM)
MIC Enterococcus faecium (GC 2243) [1, 13]: 4 µg/mL (≈ 2.83 µM)
MIC Enterococcus faecium (GC 4556) [1, 13]: 4 µg/mL (≈ 2.83 µM)
MIC Enterococcus faecium (GC 4557) [1, 13]: 4 µg/mL (≈ 2.83 µM)
MIC Escherichia coli (ATCC 25922) [2]: 32 µg/mL (≈ 22.6 µM)
MIC Escherichia coli (GC 4559) [2]: 16 µg/mL (≈ 11.3 µM)
MIC Escherichia coli (GC 4560) [2]: 2 µg/mL (≈ 1.41 µM)
MIC Staphylococcus aureus (ATCC 29213) [3]: 2 µg/mL (≈ 1.41 µM)
MIC Staphylococcus aureus (GC 1131) [3]: 2 µg/mL (≈ 1.41 µM)
MIC Staphylococcus aureus (GC 3051) [3]: 2 µg/mL (≈ 1.41 µM)
MIC Staphylococcus aureus (GC 3053) [3]: 2 µg/mL (≈ 1.41 µM)
MIC Staphylococcus aureus (GC 4541) [3]: 1 µg/mL (≈ 0.707 µM)
MIC Staphylococcus aureus (GC 4542) [3]: 1 µg/mL (≈ 0.707 µM)
MIC Staphylococcus aureus-SMITH (GC 4543) [3]: 2 µg/mL (≈ 1.41 µM)
MIC Staphylococcus aureus (GC 4544) [3]: 2 µg/mL (≈ 1.41 µM)
MIC Staphylococcus aureus (GC 4545) [3]: 1 µg/mL (≈ 0.707 µM)
MIC Coagulase Negative Staphylococcus (GC 4547) [3]: 2 µg/mL (≈ 1.41 µM)
MIC Coagulase Negative Staphylococcus (GC 4548) [3]: 1 µg/mL (≈ 0.707 µM)
MIC Coagulase Negative Staphylococcus (GC 4549) [3]: 1 µg/mL (≈ 0.707 µM)
MIC Coagulase Negative Staphylococcus (GC 4551) [3]: 2 µg/mL (≈ 1.41 µM)
MIC Coagulase Negative Staphylococcus (GC 6257) ([3]; strain GC 6257): 1 µg/mL (≈ 0.707 µM)
MIC Streptococcus agalactiae (GC 4564) [4, 14]: 0.5 µg/mL (≈ 0.353 µM)
MIC Streptococcus pneumoniae (ATCC 6301) [4, 15]: 0.25 µg/mL (≈ 0.177 µM)
MIC Streptococcus pneumoniae (GC 1894) [4, 16]: <0.06 µg/mL
MIC Streptococcus pneumoniae (GC 4565) [4, 17]: 0.25 µg/mL (≈ 0.177 µM)
MIC Streptococcus pyogenes (GC 4563) [4, 18]: 0.5 µg/mL (≈ 0.353 µM)
MIC Streptococcus agalactiae (GC 4564) [4, 13]: 0.5 µg/mL (≈ 0.353 µM)
MIC Streptococcus pneumoniae (ATCC 6301) [4, 13]: 0.25 µg/mL (≈ 0.177 µM)
MIC Streptococcus pneumoniae (GC 1894) [4, 13]: <0.06 µg/mL
MIC Streptococcus pneumoniae (GC 4565) [4, 13]: 0.25 µg/mL (≈ 0.177 µM)
MIC Streptococcus pyogenes (GC 4563) [4, 13]: 0.5 µg/mL (≈ 0.353 µM)
Compound: CC(c1ccccc1)C1NC(=O)CNC(=O)C(CO)NC(=O)C(C(O)C2CNC(=N)N2C2OC(CO)C(O)C(O)C2O)NC(=O)C(C(O)C2CNC(=N)N2)NC(=O)C(Cc2ccc(OC3OC(CO)C(OC4OC5COC(C)(c6ccc(F)cc6)OC5C(O)C4O)C(O)C3O)cc2)NC1=O (stereo not drawn) [Example 216, Cyclo[glycyl-β-methylphenylalanyl-O-[4-O-[4,6-O-(4-fluoro-α-methylbenzylidene)hexopyranosyl]hexopyranosyl]tyrosyl-3-(2-iminoimidazolidin-4-yl)seryl-3-(3-hexopyranosyl-2-iminoimidazolidin-4-yl)serylseryl]]
MIC Staphylococcus haemolyticus (GC 4546) [3]: 1 µg/mL (≈ 0.707 µM)

MIC Enterococcus avium (GC 4558) ([1]; Enterococcus avium (GC 4558)): 16 µg/mL (≈ 11.5 µM)
MIC Enterococcus faecalis (ATCC 29212) [1, 5]: 16 µg/mL (≈ 11.5 µM)
MIC Enterococcus faecalis (GC 2242) [1, 6]: 16 µg/mL (≈ 11.5 µM)
MIC Enterococcus faecalis (GC 2691) [1, 7]: 16 µg/mL (≈ 11.5 µM)
MIC Enterococcus faecalis (GC 3059) [1, 8]: 32 µg/mL (≈ 23 µM)
MIC Enterococcus faecalis (GC 4552) [1, 9]: 16 µg/mL (≈ 11.5 µM)
MIC Enterococcus faecalis (GC 4553) [1, 10]: 32 µg/mL (≈ 23 µM)
MIC Enterococcus faecalis (GC 4554) [1, 11]: 32 µg/mL (≈ 23 µM)
MIC Enterococcus faecalis (GC 6189) [1, 12]: 16 µg/mL (≈ 11.5 µM)
MIC Enterococcus faecium (GC 2243) ([1]; Enterococcus faecium (GC 2243)): 16 µg/mL (≈ 11.5 µM)
MIC Enterococcus faecium (GC 4556) ([1]; Enterococcus faecium (GC 4556)): 16 µg/mL (≈ 11.5 µM)
MIC Enterococcus faecium (GC 4557) ([1]; Enterococcus faecium (GC 4557)): 8 µg/mL (≈ 5.74 µM)
MIC Enterococcus avium (GC 4558) [1, 13]: 16 µg/mL (≈ 11.5 µM)
MIC Enterococcus faecalis (ATCC 29212) [1, 13]: 16 µg/mL (≈ 11.5 µM)
MIC Enterococcus faecalis (GC 2242) [1, 13]: 16 µg/mL (≈ 11.5 µM)
MIC Enterococcus faecalis (GC 2691) [1, 13]: 16 µg/mL (≈ 11.5 µM)
MIC Enterococcus faecalis (GC 3059) [1, 13]: 32 µg/mL (≈ 23 µM)
MIC Enterococcus faecalis (GC 4552) [1, 13]: 16 µg/mL (≈ 11.5 µM)
MIC Enterococcus faecalis (GC 4553) [1, 13]: 32 µg/mL (≈ 23 µM)
MIC Enterococcus faecalis (GC 4554) [1, 13]: 32 µg/mL (≈ 23 µM)
MIC Enterococcus faecalis (GC 6189) [1, 13]: 16 µg/mL (≈ 11.5 µM)
MIC Enterococcus faecium (GC 2243) [1, 13]: 16 µg/mL (≈ 11.5 µM)
MIC Enterococcus faecium (GC 4556) [1, 13]: 16 µg/mL (≈ 11.5 µM)
MIC Enterococcus faecium (GC 4557) [1, 13]: 8 µg/mL (≈ 5.74 µM)
MIC Escherichia coli (ATCC 25922) [2]: 64 µg/mL (≈ 45.9 µM)
MIC Escherichia coli (GC 4559) [2]: 32 µg/mL (≈ 23 µM)
MIC Escherichia coli (GC 4560) [2]: 2 µg/mL (≈ 1.44 µM)
MIC Staphylococcus aureus (ATCC 29213) [3]: 4 µg/mL (≈ 2.87 µM)
MIC Staphylococcus aureus (GC 1131) [3]: 4 µg/mL (≈ 2.87 µM)
MIC Staphylococcus aureus (GC 3051) [3]: 4 µg/mL (≈ 2.87 µM)
MIC Staphylococcus aureus (GC 3053) [3]: 8 µg/mL (≈ 5.74 µM)
MIC Staphylococcus aureus (GC 4541) [3]: 4 µg/mL (≈ 2.87 µM)
MIC Staphylococcus aureus (GC 4542) [3]: 4 µg/mL (≈ 2.87 µM)
MIC Staphylococcus aureus-SMITH (GC 4543) [3]: 2 µg/mL (≈ 1.44 µM)
MIC Staphylococcus aureus (GC 4544) [3]: 8 µg/mL (≈ 5.74 µM)
MIC Staphylococcus aureus (GC 4545) [3]: 4 µg/mL (≈ 2.87 µM)
MIC Coagulase Negative Staphylococcus (GC 4547) [3]: 4 µg/mL (≈ 2.87 µM)
MIC Coagulase Negative Staphylococcus (GC 4548) [3]: 1 µg/mL (≈ 0.718 µM)
MIC Coagulase Negative Staphylococcus (GC 4549) [3]: 2 µg/mL (≈ 1.44 µM)
MIC Coagulase Negative Staphylococcus (GC 4551) [3]: 8 µg/mL (≈ 5.74 µM)
MIC Streptococcus agalactiae (GC 4564) [4, 14]: 2 µg/mL (≈ 1.44 µM)
MIC Streptococcus pneumoniae (ATCC 6301) [4, 15]: 1 µg/mL (≈ 0.718 µM)
MIC Streptococcus pneumoniae (GC 1894) [4, 16]: 0.25 µg/mL (≈ 0.179 µM)
MIC Streptococcus pneumoniae (GC 4565) [4, 17]: 0.5 µg/mL (≈ 0.359 µM)
MIC Streptococcus pyogenes (GC 4563) [4, 18]: 1 µg/mL (≈ 0.718 µM)
MIC Streptococcus agalactiae (GC 4564) [4, 13]: 2 µg/mL (≈ 1.44 µM)
MIC Streptococcus pneumoniae (ATCC 6301) [4, 13]: 1 µg/mL (≈ 0.718 µM)
MIC Streptococcus pneumoniae (GC 1894) [4, 13]: 0.25 µg/mL (≈ 0.179 µM)
MIC Streptococcus pneumoniae (GC 4565) [4, 13]: 0.5 µg/mL (≈ 0.359 µM)
MIC Streptococcus pyogenes (GC 4563) [4, 13]: 1 µg/mL (≈ 0.718 µM)
Compound: CC(c1ccccc1)C1NC(=O)CNC(=O)C(CO)NC(=O)C(C(O)C2CNC(=N)N2C2OC(CO)C(O)C(O)C2O)NC(=O)C(C(O)C2CNC(=N)N2)NC(=O)C(Cc2ccc(OC3OC(CO)C(OC4OC5COC6(CCSCC6)OC5C(O)C4O)C(O)C3O)cc2)NC1=O (stereo not drawn) [Example 217, Cyclo[glycyl-β-methylphenylalanyl-O-[4-O-[4,6-O-(tetrahydrothiopyran-4-ylidene)hexopyranosyl]hexopyranosyl]tyrosyl-3-(2-iminoimidazolidin-4-yl)seryl-3-(3-hexopyranosyl-2-iminoimidazolidin-4-yl)serylseryl]]
MIC Staphylococcus haemolyticus (GC 4546) [3]: 2 µg/mL (≈ 1.44 µM)
